Measured values reported in patent US4401604A, “Process for preparing thiosulfenamide derivatives of N-phosphonomethylglycine triesters” (Monsanto Company, priority 1981, dated 1983).

Experiments:
Assay in all cases: Post-emergence herbicidal activity, greenhouse
Format in all cases: in vivo
Barnyardgrass = conditions: 4 WAT
Source text: (§1) A good grade of top soil is placed in aluminum pans having holes in the bottom and compacted to a depth of 0.95 to 1.27 cm. from the top of the pan. A predetermined number of seeds of each of several dicotyledonous and monocotyledonous annual plant species and/or vegetative propagules for the perennial plant species are placed on the soil and pressed into the soil surface. The seeds and/or vegetative propagules are covered with soil and leveled. The pans are then placed on a sand bench in the greenhouse and watered from below as needed. After the plants reach the desired age (two to three weeks), each pan except for the control pans is removed individually to a spraying chamber and sprayed by means of an atomizer operating at a positive air pressure of approximately 1.46 kg/cm^2 absolute. The atomizer contains 6 ml. of a solution or suspension of the chemical. In that 6 ml., is an amount of a cyclohexanone emulsifying agent mixture to give a spray solution or suspension which contains about 0.4% by weight of the emulsifier. The spray solution or suspension contains a sufficient amount of the candidate chemical in order to give application rates corresponding to those set forth in the tables. The spray solution is prepared by taking an aliquot of a 1.0% by weight stock solution or suspension of the candidate chemical in an organic solvent such as acetone or tetrahydrofuran or in water. The emulsifying agent employed is a mixture comprising 35 weight percent butylamine dodecylbenzene sulfonate and 65 weight percent of a tall oil ethylene oxide condensate having about 11 moles of ethylene oxide per mole of tall oil. The pans are returned to the greenhouse and watered as before and the injury to the plants as compared to the control is observed at approximately two and four weeks as indicated in the tables under WAT and the results recorded. In some instances, the two-week observations are omitted.
(§2) The post-emergence herbicidal activity index used in Table I is as follows:
(§3) The plant species utilized in these tests are identified by letter in accordance with the following legend: […]

Wild Buckwheat = conditions: Table II, 4 WAT
Source text: as §1, §2, §3

Quackgrass = conditions: Table I, 4 WAT
Source text: as §1, §2, §3

Johnsongrass = conditions: Table I, 4 WAT
Source text: as §1, §2, §3

Panicum Spp = conditions: Table II, 4 WAT
Source text: as §1, §2, §3

Wheat = conditions: Table II, 4 WAT
Source text: as §1, §2, §3

Downy Brome = conditions: 4 WAT
Source text: as §1, §2, §3

Velvetleaf = conditions: 4 WAT
Source text: as §1, §2, §3

Hemp Sesbania = conditions: Table II, 4 WAT
Source text: as §1, §2, §3

Morningglory = conditions: 4 WAT
Source text: as §1, §2, §3

Rice = conditions: Table II, 4 WAT
Source text: as §1, §2, §3

Measured: post-emergence herbicidal activity index

CCOC(=O)CN(CP(=O)(Oc1ccc(OC)cc1)Oc1ccc(OC)cc1)SSC [VI, Glycine, N-[[bis(4-methoxyphenoxy)phosphinyl]methyl]-N-(methyldithio)-, ethyl ester]
3 (75-99% control): Barnyardgrass; Table I, 11.2 kg/h | Barnyardgrass; Table II, 1.12 kg/h | Johnsongrass; 11.2 kg/h | Wheat; 5.6 kg/h | Downy Brome; Table I, 11.2 kg/h | Hemp Sesbania; 5.6 kg/h | Morningglory; Table I, 11.2 kg/h | Morningglory; Table II, 5.6 kg/h | Rice; 5.6 kg/h
4 (100% control): Barnyardgrass; Table I, 5.6 kg/h | Barnyardgrass; Table II, 5.6 kg/h | Wild Buckwheat; 5.6 kg/h | Panicum Spp; 5.6 kg/h | Downy Brome; Table II, 5.6 kg/h | Velvetleaf; Table II, 5.6 kg/h
1 (25-49% control): Wild Buckwheat; 1.12 kg/h | Quackgrass; 11.2 kg/h | Wheat; 1.12 kg/h | Velvetleaf; Table I, 5.6 kg/h | Velvetleaf; Table II, 1.12 kg/h
2 (50-74% control): Johnsongrass; 5.6 kg/h | Panicum Spp; 1.12 kg/h | Downy Brome; Table I, 5.6 kg/h | Downy Brome; Table II, 1.12 kg/h | Velvetleaf; Table I, 11.2 kg/h | Morningglory; Table I, 5.6 kg/h | Morningglory; Table II, 1.12 kg/h
0 (0- 24% control): Barnyardgrass; Table II, 0.28 kg/h | Wild Buckwheat; 0.28 kg/h | Quackgrass; 5.6 kg/h | Panicum Spp; 0.28 kg/h | Wheat; 0.28 kg/h | Downy Brome; Table II, 0.28 kg/h | Velvetleaf; Table II, 0.28 kg/h | Hemp Sesbania; 0.28 kg/h | Hemp Sesbania; 1.12 kg/h | Morningglory; Table II, 0.28 kg/h | Rice; 0.28 kg/h | Rice; 1.12 kg/h
